{"source": "patent US7189729B2", "about": "“Methods and compositions as protein kinase inhibitors” (IRM LLC, priority 2003, dated 2007)", "target": "b-Raf (Homo sapiens, UniProt P15056)", "sequence (P15056 whole entry)": "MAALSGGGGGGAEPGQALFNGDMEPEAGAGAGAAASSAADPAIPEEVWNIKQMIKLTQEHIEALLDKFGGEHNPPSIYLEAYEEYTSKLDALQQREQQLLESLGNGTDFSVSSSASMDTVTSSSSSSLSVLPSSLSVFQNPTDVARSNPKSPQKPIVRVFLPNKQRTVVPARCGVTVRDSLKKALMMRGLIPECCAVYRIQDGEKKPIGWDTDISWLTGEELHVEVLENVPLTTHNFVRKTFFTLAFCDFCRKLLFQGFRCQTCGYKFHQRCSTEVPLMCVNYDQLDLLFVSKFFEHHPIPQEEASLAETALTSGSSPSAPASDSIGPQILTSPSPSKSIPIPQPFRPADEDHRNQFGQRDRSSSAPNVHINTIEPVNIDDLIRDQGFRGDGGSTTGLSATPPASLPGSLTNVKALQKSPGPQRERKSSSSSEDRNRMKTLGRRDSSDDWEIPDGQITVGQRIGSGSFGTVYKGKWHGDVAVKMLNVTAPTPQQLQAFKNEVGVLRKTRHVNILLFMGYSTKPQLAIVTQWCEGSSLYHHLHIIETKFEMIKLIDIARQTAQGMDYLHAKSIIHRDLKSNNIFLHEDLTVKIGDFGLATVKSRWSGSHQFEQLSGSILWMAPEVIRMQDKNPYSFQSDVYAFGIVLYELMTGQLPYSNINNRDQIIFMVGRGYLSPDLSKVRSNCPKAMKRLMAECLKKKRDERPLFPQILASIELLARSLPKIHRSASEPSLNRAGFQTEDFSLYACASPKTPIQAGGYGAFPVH", "experiment": "b-Raf inhibition assay (IκBα substrate, 384-well plate)", "format": "biochemical", "protocol": "Compounds of the invention are tested for their ability to inhibit the activity of b-Raf. The assay is carried out in 384-well MaxiSorp plates (NUNC) with black walls and clear bottom. The substrate, IκBα is diluted in DPBS (1:750) and 15 μl is added to each well. The plates are incubated at 4° C. overnight and washed 3 times with TBST (25 mM Tris, pH 8.0, 150 mM NaCl and 0.05% Tween-20) using the EMBLA plate washer. Plates are blocked by Superblock (15 μl/well) for 3 hours at room temperature, washed 3 times with TBST and pat-dried. Assay buffer containing 20 μM ATP (10 μl) is added to each well followed by 100 nl or 500 nl of compound. B-Raf is diluted in the assay buffer (1 μl into 25 μl) and 10 μl of diluted b-Raf is added to each well ([…]). The plates are incubated at room temperature for 2.5 hours. The kinase reaction is stopped by washing the plates 6 times with TBST. Phosph-IκBα (Ser32/36) antibody is diluted in Superblock (1:10,000) and 15 μl is added to each well. The plates are incubated at 4° C. overnight and washed 6 times with TBST. AP-conjugated goat-anti-mouse IgG is diluted in Superblock (1:1,500) and 15 μl is added to each well. Plates are incubated at room temperature for 1 hour and washed 6 times with TBST. […] Plates are read on Acquest or Analyst GT using a Fluorescence Intensity Nanxin BBT anion (505 dichroic mirror)."}
{"smiles": "CN1CCN(Cc2ccc(C(=O)Nc3cccc(Nc4ccccc4-c4cc(Nc5cccc(N(C)C)c5)ncn4)c3)cc2)CC1", "note": "[Example 1, N-(3-{2-[6-(3-Dimethylamino-phenylamino)-pyrimidin-4-yl]-phenylamino}-phenyl)-4-(4-methyl-piperazin-1-ylmethyl)-benzamide]", "values": [{"measurement": "IC50", "value": 667, "unit": "nM"}]}
